Data: BigSolDB 2.1

N#CC(c1ccc(Cl)cc1)c1c(Cl)cc(-n2ncc(=O)[nH]c2=O)cc1Cl (stereo not given)
solubility (mole fraction)
Conditions | in DMF | in acetone | in acetonitrile | in ethanol | in ethyl acetate | in isopropanol | in methanol | in n-butanol | in n-propanol | in toluene
283.15 K | 0.0254 | 0.012 | 0.00825 | 0.00168 | 0.0052 | 0.000798 | 0.00233 | 0.000481 | 0.00118 | 0.000263
288.15 K | 0.028 | 0.014 | 0.00972 | 0.00204 | 0.00634 | 0.00102 | 0.0027 | 0.000639 | 0.00146 | 0.000371
293.15 K | 0.0309 | 0.0162 | 0.0115 | 0.00245 | 0.0077 | 0.00129 | 0.00316 | 0.000851 | 0.00179 | 0.00052
298.15 K | 0.0339 | 0.0186 | 0.0135 | 0.00293 | 0.00924 | 0.00163 | 0.00369 | 0.0011 | 0.00221 | 0.000692
303.15 K | 0.0372 | 0.0215 | 0.0157 | 0.00347 | 0.0111 | 0.00204 | 0.00426 | 0.00142 | 0.00268 | 0.000923
308.15 K | 0.0407 | 0.0247 | 0.0183 | 0.00407 | 0.0132 | 0.00251 | 0.00494 | 0.00181 | 0.00321 | 0.00123
313.15 K | 0.0444 | 0.0281 | 0.0211 | 0.00476 | 0.0157 | 0.00308 | 0.00566 | 0.00229 | 0.00383 | 0.00162
318.15 K | 0.0484 | 0.032 | 0.0244 | 0.00555 | 0.0185 | 0.00374 | 0.00646 | 0.00288 | 0.0046 | 0.00211
323.15 K | 0.0527 | 0.0361 | 0.0279 | 0.00641 | 0.0217 | 0.00455 | 0.00737 | 0.0036 | 0.00543 | 0.0027
